Source: patent US9096539B2, “Substituted 4,5-dihydro-2H-benzo[e]indazole-9-carboxylates for the treatment of diabetes and related disorders” (Council of Scientific & Industrial Research, priority 2012, dated 2015)

Test system: sucrose challenged STZ induced diabetic rats
Experiment: Antihyperglycaemic activity in sucrose challenged streptozotocin (STZ)-induced diabetic rats (STZ-S)
Assay type: in vivo, rat
Conditions: compounds 100 mg/kg, Januvia 50 mg/kg; for % Antihyperglycaemic activity STZ-S 0-5 h AUC / % Antihyperglycaemic activity STZ-S 0-24 h AUC: oral; for Blood Glucose Profile 0 min (Pre treatment): 0 min pre treatment (fasting baseline)
Procedure: The test compounds and standard antidiabetic drug Januvia were prepared in 1.0% freshly prepared Gum acacia. Assessment of Test Compounds for Antihyperglycaemic Activity in Sucrose Challenged Streptozotocin STZ-Induced Diabetic Rats— Induction of Diabetes in Rats: Overnight starved male albino rats of Sprague Dawley strain were used and Diabetes was induced in the animals by single intraperitoneal injection of Streptozotocin at 60 mg/kg body weight dose prepared in 0.1M citrate buffer (pH 4.5). Fasting blood glucose level was measured by using a Glucometer (ACCU-CHEK II; […] Grouping and Treatment: […] All the diabetic animals were again divided into groups with five animals in each group. Animals of one group were regarded as the control group (orally administered 1% gum acacia) and the others were treated as the experimental groups. […] Animals of the control group were given an equal amount of 1.0% gum acacia. The standard antidiabetic drug Januvia was given to the animals at an oral dose of 50 mg/kg body weight. […] Food but not water was withheld from the cages during the course of experimentation. Percent hyperglycemic activity was determined by comparing the AUC (area under curve) of experimental groups with that of the vehicle treated control group. Quantitative glucose tolerance of each animal was calculated by the area under the curve (AUC) method using Prism Software. The area under the curve of the control group and the experimental group was compared to determine the percent antihyperglycaemic activity. Statistical comparisons were performed by one-way analysis of variance (ANOVA), followed by Dunnett's multiple range test (DMRT). […] Results were expressed as mean±SEM.

SMILES: COC(=O)c1c(SC)cc(-c2ccc(C)cc2)c2c1-c1cn(-c3ccccc3)nc1CC2 [compound 5, methyl 8-(methylthio)-2-phenyl-6-p-tolyl-4,5-dihydro-2H-benzo[e]indazole-9-carboxylate]
- % Antihyperglycaemic activity STZ-S 0-5 h AUC: 20.4%
- % Antihyperglycaemic activity STZ-S 0-24 h AUC: 23.6%
- Blood Glucose Profile 0 min (Pre treatment): 222.3 ± 9.39 mg/dL
- Blood Glucose Profile 30 min (Post treatment): 515.6 ± 15.5 mg/dL
- Blood Glucose Profile 60 min (Post treatment): 528.6 ± 14.4 mg/dL
- Blood Glucose Profile 90 min (Post treatment): 506.5 ± 14.0 mg/dL
- Blood Glucose Profile 120 min (Post treatment): 459.6 ± 11.2 mg/dL
- Blood Glucose Profile 180 min (Post treatment): 402.1 ± 5.58 mg/dL
- Blood Glucose Profile 240 min (Post treatment): 332.5 ± 15.6 mg/dL
- Blood Glucose Profile 300 min (Post treatment): 284.3 ± 16.9 mg/dL
- Blood Glucose Profile 1440 min (Post treatment): 411.1 ± 13.6 mg/dL

SMILES: COC(=O)c1c(SC)cc(-c2cccc3ccccc23)c2c1-c1cn(-c3ccccc3)nc1CC2 [compound 6, methyl 8-(methylthio)-6-(naphthalen-1-yl)-2-phenyl-4,5-dihydro-2H-benzo[e]indazole-9-carboxylate]
- % Antihyperglycaemic activity STZ-S 0-5 h AUC: 29.7%
- % Antihyperglycaemic activity STZ-S 0-24 h AUC: 25.7%
- Blood Glucose Profile 0 min (Pre treatment): 222.6 ± 6.55 mg/dL
- Blood Glucose Profile 30 min (Post treatment): 442.1 ± 18.2 mg/dL
- Blood Glucose Profile 60 min (Post treatment): 520.0 ± 10.3 mg/dL
- Blood Glucose Profile 90 min (Post treatment): 464.0 ± 14.4 mg/dL
- Blood Glucose Profile 120 min (Post treatment): 399.3 ± 14.0 mg/dL
- Blood Glucose Profile 180 min (Post treatment): 334.0 ± 13.4 mg/dL
- Blood Glucose Profile 240 min (Post treatment): 301.6 ± 18.8 mg/dL
- Blood Glucose Profile 300 min (Post treatment): 277.0 ± 10.1 mg/dL
- Blood Glucose Profile 1440 min (Post treatment): 405.0 ± 17.6 mg/dL
